Assay results as given in patent US8653089B2, “Heterocyclic compounds and methods of use” (F. Hoffmann-La Roche AG, priority 2011, dated 2014).

What follows are molecules tested on production of CD69 by B lymphocytes in human whole blood activated by crosslinking surface IgM (assay: CD69 human whole blood assay (Example 903), FACS). Settings: B lymphocytes activated with goat F(ab')2 anti-human IgM, read-out: CD69 Hu Blood FACS IC50.
Format: cell-based
Source text: There is good evidence that B-cells play a key role in the pathogenesis of autoimmune and/or inflammatory disease. Protein-based therapeutics that deplete B cells such as Rituxan are effective against autoantibody-driven inflammatory diseases such as rheumatoid arthritis (Rastetter et al. (2004) Annu Rev Med 55:477). CD69 is the early activation marker in leukocytes including T cells, thymocytes, B cells, NK cells, neutrophils, and eosinophils. The CD69 human whole blood assay (Example 903) determines the ability of compounds to inhibit the production of CD69 by B lymphocytes in human whole blood activated by crosslinking surface IgM with goat F(ab′)2 anti-human IgM.

IC50 [µM]	Compound
0.0671	CC(Nc1ncnc2[nH]cnc12)c1nc2ccc(F)cc2n1-c1ccccn1 (stereo not drawn) [Example 182, [1-(6-Fluoro-1-pyridin-2-yl-1H-benzoimidazol-2-yl)-ethyl]-(9H-purin-6-yl)-amine]

Same assay, conditions: Homo sapiens, Lymphocyte, B lymphocytes activated with goat F(ab')2 anti-human IgM, read-out: CD69 Hu Blood FACS IC50

Compound	IC50 [µM]
C[C@H](Nc1ncnc(N)c1C#N)c1nc2ccc(F)c(C3CC3)c2n1-c1cccnc1 [Example 306, 4-Amino-6-[(S)-1-(7-cyclopropyl-6-fluoro-1-pyridin-3-yl-1H-benzoimidazol-2-yl)-ethylamino]-pyrimidine-5-carbonitrile]	0.00287
C[C@H](Nc1ncnc(N)c1C#N)c1nc2ccc(F)cc2n1-c1cncc(F)c1 [Example 277, 4-Amino-6-{(S)-1-[6-fluoro-1-(5-fluoro-pyridin-3-yl)-1H-benzoimidazol-2-yl]-ethylamino}-pyrimidine-5-carbonitrile]	0.018
C[C@H](Nc1ncnc(N)c1C#N)c1nc2ccc(F)c(-c3ccccn3)c2n1C [Example 411, 4-amino-6-[[(1S)-1-[6-fluoro-1-methyl-7-(2-pyridyl)benzimidazol-2-yl]ethyl]amino]pyrimidine-5-carbonitrile]	0.895
C[C@H](Nc1ncnc2[nH]cnc12)c1nc2ccc(F)c(C(=O)N3CCOCC3)c2n1-c1ccccc1 [Example 273, {5-Fluoro-3-phenyl-2-[(S)-1-(9H-purin-6-ylamino)-ethyl]-3H-benzoimidazol-4-yl}-morpholin-4-yl-methanone]	0.0268
CC(Nc1ncnc2[nH]cnc12)c1nc2ccc(F)c(C(=O)N(C)C)c2n1-c1ccccc1 (stereo not drawn) [Example 204, 5-Fluoro-3-phenyl-2-[1-(9H-purin-6-ylamino)-ethyl]-3H-benzoimidazole-4-carboxylic acid dimethylamide]	0.0675
COc1c(F)ccc2nc([C@H](C)Nc3ncnc(N)c3C#N)n(-c3ccccc3)c12 [Example 339, 4-Amino-6-[(S)-1-(6-fluoro-7-methoxy-1-phenyl-1H-benzoimidazol-2-yl)-ethylamino]-pyrimidine-5-carbonitrile]	0.00493
OCC[C@H](Nc1ncnc2[nH]cnc12)c1nc2ccc(F)cc2n1-c1ccccn1 [Example 304, (S)-3-(6-Fluoro-1-pyridin-2-yl-1H-benzoimidazol-2-yl)-3-(9H-purin-6-ylamino)-propan-1-ol]	0.172
C[C@H](Nc1ncnc2[nH]cnc12)c1nc2ccc(F)c(C3CC3)c2n1-c1ccccn1 [Example 274, [(S)-1-(7-Cyclopropyl-6-fluoro-1-pyridin-2-yl-1H-benzoimidazol-2-yl)-ethyl]-(9H-purin-6-yl)-amine]	0.0268
C[C@H](Nc1ncnc(N)c1C#N)c1nc2ccc(F)c3c2n1CCCC3 [Example 406, 4-Amino-6-[(S)-1-(5-fluoro-6,7,8,9-tetrahydro-2,9a-diazabenzo[cd]azulen-1-yl)ethylamino]pyrimidine-5-carbonitrile]	0.0326
CC(Nc1ncnc2[nH]cnc12)c1nc2ccc(F)c(O)c2n1-c1ccccc1 (stereo not drawn) [Example 327, 5-Fluoro-3-phenyl-2-[1-(9H-purin-6-ylamino)-ethyl]-3H-benzoimidazol-4-ol]	0.196
C[C@H](Nc1ncnc(N)c1C#N)c1nc2ccc(F)cc2n1-c1ccn(C)n1 [Example 402, 4-amino-6-[[(1S)-1-[6-fluoro-1-(1-methylpyrazol-3-yl)benzimidazol-2-yl]ethyl]amino]pyrimidine-5-carbonitrile]	0.0647
C[C@H](Nc1ncnc2[nH]cnc12)c1nc2ccc(F)cc2n1-c1ccncn1 [Example 332, [(S)-1-(6-Fluoro-1-pyrimidin-4-yl-1H-benzoimidazol-2-yl)-ethyl]-(9H-purin-6-yl)-amine]	0.0817
OCC[C@H](Nc1ncnc2[nH]cnc12)c1nc2ccc(F)cc2n1-c1ccccc1 [Example 187, (S)-3-(6-Fluoro-1-phenyl-1H-benzoimidazol-2-yl)-3-(9H-purin-6-ylamino)-propan-1-ol]	0.119
Cc1nc(N)nc(N[C@@H](C)c2nc3ccc(F)cc3n2-c2ccccn2)c1C#N [Example 333, 2-Amino-4-[(S)-1-(6-fluoro-1-pyridin-2-yl-1H-benzoimidazol-2-yl)-ethylamino]-6-methyl-pyrimidine-5-carbonitrile]	0.00492
Fc1ccc2nc(CNc3ncnc4[nH]cnc34)n(-c3ccccc3)c2c1 [Example 443, (6-Fluoro-1-phenyl-1H-benzoimidazol-2-ylmethyl)-(9H-purin-6-yl)amine]	> 5
C[C@H](Nc1ncnc(N)c1C#N)c1nc2ccc(F)c(-c3ccccc3)c2n1C1CC1 [Example 415, 4-amino-6-[[(1S)-1-(1-cyclopropyl-6-fluoro-7-phenyl-benzimidazol-2-yl)ethyl]amino]pyrimidine-5-carbonitrile]	0.224

Further lines, results first:

IC50 [µM]	Compound
0.00344	Cc1nc(N)nc(N[C@@H](C)c2nc3ccc(F)cc3n2-c2ccccc2)c1C#N [Example 328, 2-Amino-4-[(S)-1-(6-fluoro-1-phenyl-1H-benzoimidazol-2-yl)-ethylamino]-6-methyl-pyrimidine-5-carbonitrile]
0.0972	C[C@H](Nc1ncnc(N)c1C#N)c1nc2ccc(F)c(C#N)c2n1-c1ccccn1 [Example 291, 2-[(S)-1-(6-Amino-5-cyano-pyrimidin-4-ylamino)-ethyl]-5-fluoro-3-pyridin-2-yl-3H-benzoimidazole-4-carbonitrile]
0.00291	C[C@H](Nc1ncnc(N)c1C#N)c1nc2ccc(F)c(CC#N)c2n1-c1ccccc1 [Example 345, 4-Amino-6-[(S)-1-(7-cyanomethyl-6-fluoro-1-phenyl-1H-benzoimidazol-2-yl)-ethylamino]-pyrimidine-5-carbonitrile]
0.0433	CC(Nc1ncnc2[nH]cnc12)c1nc2ccc(F)c(C#N)c2n1-c1ccccc1 (stereo not drawn) [Example 217, 5-Fluoro-3-phenyl-2-[1-(9H-purin-6-ylamino)-ethyl]-3H-benzoimidazole-4-carbonitrile]
0.0188	C[C@H](Nc1ncnn2ccnc12)c1nc2ccc(F)cc2n1-c1ccccc1 [Example 321, [(S)-1-(6-Fluoro-1-phenyl-1H-benzoimidazol-2-yl)-ethyl]-imidazo[2,1-f][1,2,4]triazin-4-yl-amine]
0.141	Cc1nc(N)nc(N[C@@H](C)c2nc3ccc(F)cc3n2-c2ccccc2)n1 [Example 258, N—[(S)-1-(6-Fluoro-1-phenyl-1H-benzoimidazol-2-yl)-ethyl]-6-methyl-[1,3,5]triazine-2,4-diamine]
0.0429	CCC(Nc1ncnc2[nH]cnc12)c1nc2ccc(F)cc2n1-c1cccnc1 (stereo not drawn) [Example 205, [1-(6-Fluoro-1-pyridin-3-yl-1H-benzoimidazol-2-yl)-propyl]-(9H-purin-6-yl)-amine]
0.0119	C[C@H](Nc1ncnc2[nH]cnc12)c1nc2ccc(F)c(C(=O)N3CCOCC3)c2n1C1CC1 [Example 389, [3-cyclopropyl-5-fluoro-2-[(1S)-1-(9H-purin-6-ylamino)ethyl]benzimidazol-4-yl]-morpholino-methanone]
0.129	OCC(Nc1ncnc2nc[nH]c12)c1nc2ccc(F)cc2n1-c1ccccc1 (stereo not drawn) [Example 224, 2-(6-Fluoro-1-phenyl-1H-benzoimidazol-2-yl)-2-(7H-purin-6-ylamino)-ethanol]
0.0555	CCC(Nc1ncnc2nc[nH]c12)c1nc2ccc(F)cc2n1-c1ccccc1 (stereo not drawn) [Example 212, [1-(6-Fluoro-1-phenyl-1H-benzoimidazol-2-yl)-propyl]-(7H-purin-6-yl)-amine]
